ChEMBL document CHEMBL5465560, “Selectivity Literature for EUbOPEN Chemogenomic Library” (2024)

Tests used:
[1] = target: T1, Serine/threonine-protein kinase haspin (Homo sapiens) (UniProt Q8TF76); assay: Selectivity interaction (Kinase panel (DSF assay)) EUB0001558a GSG2
T1 sequence (whole entry): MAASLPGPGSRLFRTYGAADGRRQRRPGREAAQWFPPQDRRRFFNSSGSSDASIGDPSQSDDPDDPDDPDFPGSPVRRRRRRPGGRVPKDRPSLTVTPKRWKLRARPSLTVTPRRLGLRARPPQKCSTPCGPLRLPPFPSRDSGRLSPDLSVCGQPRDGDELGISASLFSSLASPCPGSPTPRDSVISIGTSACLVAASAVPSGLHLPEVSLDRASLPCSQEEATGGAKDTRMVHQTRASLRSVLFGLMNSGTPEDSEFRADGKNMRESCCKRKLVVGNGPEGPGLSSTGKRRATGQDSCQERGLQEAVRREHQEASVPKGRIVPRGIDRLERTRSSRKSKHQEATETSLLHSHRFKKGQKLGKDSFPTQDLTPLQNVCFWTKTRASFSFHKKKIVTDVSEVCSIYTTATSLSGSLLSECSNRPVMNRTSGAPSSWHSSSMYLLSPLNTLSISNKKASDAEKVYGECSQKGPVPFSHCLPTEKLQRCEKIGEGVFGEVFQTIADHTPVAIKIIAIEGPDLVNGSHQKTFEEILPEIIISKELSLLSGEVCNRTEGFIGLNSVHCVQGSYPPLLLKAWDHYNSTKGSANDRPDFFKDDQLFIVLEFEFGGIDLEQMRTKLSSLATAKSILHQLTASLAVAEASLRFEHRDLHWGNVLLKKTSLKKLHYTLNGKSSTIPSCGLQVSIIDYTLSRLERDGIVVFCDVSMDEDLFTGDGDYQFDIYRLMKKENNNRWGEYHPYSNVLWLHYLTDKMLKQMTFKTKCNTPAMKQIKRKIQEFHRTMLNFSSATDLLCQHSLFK

[2] = target: T2, Protein kinase C iota type (Homo sapiens) (UniProt P41743); assay: Selectivity interaction (KinomeScan (DiscoverX)) EUB0000045b PRKCI
T2 sequence (whole entry): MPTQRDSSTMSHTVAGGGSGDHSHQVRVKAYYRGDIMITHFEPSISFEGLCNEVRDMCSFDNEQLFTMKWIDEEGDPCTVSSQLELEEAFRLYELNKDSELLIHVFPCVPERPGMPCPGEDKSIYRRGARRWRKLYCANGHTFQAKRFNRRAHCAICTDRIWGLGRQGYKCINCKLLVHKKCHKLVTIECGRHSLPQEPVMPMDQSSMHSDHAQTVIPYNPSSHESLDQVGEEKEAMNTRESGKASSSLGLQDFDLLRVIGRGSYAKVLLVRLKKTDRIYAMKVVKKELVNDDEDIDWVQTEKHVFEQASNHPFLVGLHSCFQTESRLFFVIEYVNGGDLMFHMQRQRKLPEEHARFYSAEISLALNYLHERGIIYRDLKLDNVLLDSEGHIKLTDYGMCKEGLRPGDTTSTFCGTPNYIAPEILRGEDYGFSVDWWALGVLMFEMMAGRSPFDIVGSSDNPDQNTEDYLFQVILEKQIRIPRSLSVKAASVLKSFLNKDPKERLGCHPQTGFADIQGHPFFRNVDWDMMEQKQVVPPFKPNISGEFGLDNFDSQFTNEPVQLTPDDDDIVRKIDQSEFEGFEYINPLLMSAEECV

[3] = target: T3, Dual specificity mitogen-activated protein kinase kinase 6 (Homo sapiens) (UniProt P52564); assay: Selectivity interaction (Kinase panel (KiNativ target engagement assay in Jurkat cells)) EUB0001635a MAP2K6; type: cell-based; conditions: Selectivity number of off-targets 0.0, Selectivity number of targets 233.0, Source Knowledge https://www.sciencedirect.com/science/article/pii/S2451945619300674?via%3Dihub, at 1 µM
T3 sequence (whole entry): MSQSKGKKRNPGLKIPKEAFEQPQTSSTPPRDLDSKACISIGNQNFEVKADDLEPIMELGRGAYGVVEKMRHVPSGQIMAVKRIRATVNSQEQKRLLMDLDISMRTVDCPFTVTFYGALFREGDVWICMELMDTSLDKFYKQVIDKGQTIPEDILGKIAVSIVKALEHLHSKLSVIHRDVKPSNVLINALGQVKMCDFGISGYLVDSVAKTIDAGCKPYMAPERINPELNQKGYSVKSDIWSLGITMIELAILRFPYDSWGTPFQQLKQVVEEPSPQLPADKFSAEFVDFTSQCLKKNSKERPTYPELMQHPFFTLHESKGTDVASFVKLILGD

[4] = target: T4, Serine/threonine-protein kinase NLK (Homo sapiens) (UniProt Q9UBE8); assay: Selectivity interaction (KinomeScan (DiscoverX)) EUB0000092b NLK; conditions: at 10 µM
T4 sequence (whole entry): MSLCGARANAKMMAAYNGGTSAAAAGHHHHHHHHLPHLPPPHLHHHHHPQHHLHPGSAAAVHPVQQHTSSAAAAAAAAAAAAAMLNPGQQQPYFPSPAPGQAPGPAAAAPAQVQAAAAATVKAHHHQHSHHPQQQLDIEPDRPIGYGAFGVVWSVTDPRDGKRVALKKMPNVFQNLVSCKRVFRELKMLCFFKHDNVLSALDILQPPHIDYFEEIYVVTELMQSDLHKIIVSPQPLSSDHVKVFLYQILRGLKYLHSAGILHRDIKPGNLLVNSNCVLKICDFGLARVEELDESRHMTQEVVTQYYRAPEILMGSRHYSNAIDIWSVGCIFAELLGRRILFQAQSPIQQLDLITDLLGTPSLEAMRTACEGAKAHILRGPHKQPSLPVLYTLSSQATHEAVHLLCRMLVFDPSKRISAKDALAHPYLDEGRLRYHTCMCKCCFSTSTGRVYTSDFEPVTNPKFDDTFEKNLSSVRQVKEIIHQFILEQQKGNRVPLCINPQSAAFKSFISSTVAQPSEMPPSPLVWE

With `CC(C)(O)[C@H](F)CN1Cc2cc(NC(=O)c3cnn4cccnc34)c(N3CCOCC3)cc2C1=O` the dTM [1] was 0.4 K.

In the case of `C=CC(=O)Nc1cc(-n2c(=O)ccc3cnc4ccc(-c5ccc(NS(C)(=O)=O)cc5)cc4c32)ccc1C`, the % of control ([2]; at 1 µM) was 84% and the % of control ([2]; at 10 µM) was 64%.

`C=CC(=O)Nc1ccc(C(=O)Nc2[nH]nc3c2CN(C(=O)N[C@H](CN(C)C)c2ccccc2)C3(C)C)cc1` showed a % of engagement [3] of 2.8%.

Work on `CCC(=O)N1CCN(c2ccc(-n3c(=O)ccc4cnc5ccc(-c6cnc7ccccc7c6)cc5c43)cc2C(F)(F)F)CC1` yielded a % of control [4] of 25%.
